Test results from patent publication US20070054916A1, “Aryl nitrogen-containing bicyclic compounds and methods of use” (Amgen Inc., priority 2004, published 2007).
pIC50: −log10 of the molar value.

Key:
[1] = molecular target: LCK KD GST (225-509) (Homo sapiens, UniProt P06239); assay: LCK Homogenous Time Resolved Flourescent (HTRF) kinase assay; conditions: average IC50 value in the human HTRF assay for the inhibition of the Lck kinase enzyme
[2] = system: production of TNF by monocytes activated with bacterial lipopolysaccharide (LPS); assay: Lipopolysaccharide-activated monocyte TNF production assay; assay type: cell-based; conditions: Homo sapiens, read-out: IC50 values in the monocyte assay (LPS induced TNF release)
Outline: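 Adherent human PBMC-derived monocytes (~70%) in DMEM/2% FCS were pre-incubated 60 min with nine two-fold compound dilutions, then stimulated with E. coli K532 LPS (added as 30 ng/ml solution) for 4 h at 37 °C. Supernatant TNF-α was measured by sandwich ELISA. IC50 was taken from a polynomial fit of TNF versus compound concentration.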

Sequence of LCK KD GST (225-509) (P06239 225-509): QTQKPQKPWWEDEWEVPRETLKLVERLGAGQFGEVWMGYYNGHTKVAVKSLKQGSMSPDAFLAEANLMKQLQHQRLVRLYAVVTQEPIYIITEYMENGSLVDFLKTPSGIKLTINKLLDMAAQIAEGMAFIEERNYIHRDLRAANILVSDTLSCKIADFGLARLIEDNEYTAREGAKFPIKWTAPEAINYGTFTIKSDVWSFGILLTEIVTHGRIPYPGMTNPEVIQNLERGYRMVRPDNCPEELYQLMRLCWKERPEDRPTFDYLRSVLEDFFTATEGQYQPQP

Compound | pIC50 [1] | pIC50 [2]
Cc1ccc(C(=O)NC2CC2)cc1-c1ccc2nc(NC3CCN(C)CC3)ncc2c1 [Example 45, N-cyclopropyl-4-methyl-3-(2-((1-methyl-4-piperidinyl)amino)-6-quinazolinyl) benzamide] | ≥ 4.60 | –
Cc1ccc(C(=O)Nc2cc(C(F)(F)F)ccc2CN2CCN(C)CC2)cc1-c1ccc2ncnc(N)c2c1 [Example 383, 3-(4-amino-6-quinazolinyl)-4-methyl-N-(2-((4-methyl-1-piperazinyl)methyl)-5-(trifluoromethyl)phenyl)benzamide] | ≥ 6.00 | –
Nc1ncnc2ccc(-c3cccc(NC(=O)c4cccc(C(F)(F)F)c4)c3)cc12 [Example 513, N-(3-(4-amino-6-quinazolinyl)phenyl)-3-(trifluoromethyl)benzamide] | ≥ 6.00 | –
Cc1ccc(C(=O)NC2CC2)cc1-c1ccc2nc(NCCN(C)C)ncc2c1 [Example 44] | ≥ 4.60 | –
Cc1ccc(C(=O)NC2CC2)cc1-c1ccc2nc(NCCN3CCCCC3)ncc2c1 [Example 47, N-cyclopropyl-4-methyl-3-(2-((2-(1-piperidinyl)ethyl)amino)-6-quinazolinyl) benzamide] | ≥ 6.00 | –
CNc1ncc2cc(-c3cc(C(=O)Nc4cc(C(F)(F)F)ccc4F)ccc3C)ccc2n1 [Example 1, N-(2-fluoro-5-(trifluoromethyl)phenyl)-4-methyl-3-(2-(methylamino)quinazolin-6-yl)benzamide] | – | ≥ 4.60
CNc1ncc2cc(-c3cc(C(=O)Nc4cc(C(F)(F)F)ccc4N(C)CCCN(C)C)ccc3C)cnc2n1 [Example 193, N-(2-((3-(dimethylamino)propyl)(methyl)amino)-5-(trifluoromethyl)phenyl)-4-methyl-3-(2-(methylamino)pyrido[2,3-d]pyrimidin-6-yl)benzamide] | – | ≥ 4.60

Further lines, with some results ahead:

pIC50 [1] | Compound | pIC50 [2]
≥ 6.00 | CC(C)c1cccc(C(=O)Nc2cc(-c3ccc4nc(N)ncc4c3)cc(C(F)(F)F)c2)c1 [Example 512, N-(3-(2-amino-6-quinazolinyl)-5-(trifluoromethyl)phenyl)-3-(1-methylethyl)benzamide] | –
≥ 6.00 | Cc1ccc(C(=O)Nc2cc(Cl)ccc2N(C)CCCN(C)C)cc1-c1ccc2nc(N)ncc2c1 [Example 95, 3-(2-amino-6-quinazolinyl)-N-(5-chloro-2-((3-(dimethylamino)propyl)(methyl)amino)phenyl)-4-methylbenzamide] | –
≥ 6.00 | Cc1ccc(C(=O)Nc2cc(C(F)(F)F)ccc2N(C)C)cc1-c1ccc2ncnc(N)c2c1 [Example 385, 3-(4-amino-6-quinazolinyl)-N-(2-(dimethylamino)-5-(trifluoromethyl)phenyl)-4-methylbenzamide] | –
≥ 6.00 | COc1c(Br)cc(-c2ccc3nc(N)ncc3c2)cc1C(=O)Nc1cc(C(F)(F)F)ccc1N(C)CCCN(C)C [Example 103, 5-(2-amino-6-quinazolinyl)-3-bromo-N-(2-((3-(dimethylamino)propyl)(methyl)amino)-5-(trifluoromethyl)phenyl)-2-(methyloxy)benzamide] | –
≥ 6.00 | Nc1ncc2cc(-c3cccc(C(=O)Nc4cccc(OC(F)(F)F)c4)c3)ccc2n1 [Example 98, 3-(2-amino-6-quinazolinyl)-N-(3-((trifluoromethyl)oxy)phenyl)benzamide] | –
≥ 6.00 | Nc1ncc2cc(-c3ccc(C(=O)Nc4cccc(C(F)(F)F)c4)cc3)ccc2n1 [Example 15, 4-(2-amino-6-quinazolinyl)-N-(3-(trifluoromethyl)phenyl)benzamide] | –
≥ 6.00 | Cc1ccc(C(=O)Nc2cc(C(F)(F)F)ccc2N(C)C2CCN(C)C2)cc1-c1ccc2nc(N)ncc2c1 (stereo in doubt) [Example 238, 3-(2-amino-6-quinazolinyl)-4-methyl-N-(2-(methyl((3S)-1-methyl-3-pyrrolidinyl)amino-5-(trifluoromethyl)phenyl)berizamide] | –
≥ 4.60 | Cc1ccc(C(=O)NCCN(C)C)cc1-c1ccc2nc(N)ncc2c1 [Example 134, 3-(2-amino-6-quinazolinyl)-N-(2-(dimethylamino)ethyl)-4-methylbenzamide] | –
≥ 6.00 | CC1(C)CC(=O)Nc2cc(NC(=O)c3cc(-c4ccc5nc(N)ncc5c4)ccc3F)ccc21 [Example 412] | –
